Laboratory results: PubChem BioAssay AID2253 (Southern Research Specialized Biocontainment Screening …, 2010)
Several values for one entry are separate records, joined by “and”; a condition that tells them apart may be missing. Equal values may be shown once.

Test system: THP-1 viability, CellTiter-Glo luminescence, 72 h
Experiment: human monocytic cell viability reduction – S. typhimurium screen hits, cytotoxicity control for Salmonella PhoP regulon inhibitors, dose response (AID 2253)

SMILES	EC50
Cc1cc(NC(c2cccnc2)c2ccc3cccnc3c2O)no1 (stereo not given)	1.79 µM
O=C(C[n+]1cc(-c2ccc(Cl)c(Cl)c2)n2c1CCC2)N1c2ccccc2Sc2ccccc21	17.8 µM
N#Cc1c(NC(=O)c2cnccn2)sc2c1CCCC2	9.25 µM
Cc1cc(/C=N/NC(N)=S)c(C)n1-c1ccc(Cl)c(Cl)c1	19.8 µM
COc1ccc(C(=O)On2c(-c3ccc(Br)cc3)nc3ccccc3c2=O)cc1	12.8 µM
CC(C)COc1ccc(Cc2cnc(N)nc2N)cc1	36.9 µM
CN(c1cccc(Cl)c1)S(=O)(=O)c1cccc(C(=O)Nc2nc3ccccc3[nH]2)c1	13.3 µM
C[C@H]1c2cccc(O)c2C(O)=C2C(=O)C3(O)C(O)=C(C(N)=O)C(=O)[C@@H](N(C)C)[C@@H]3[C@@H](O)[C@@H]21 (stereo not given in full)	34.4 µM
O=[N+]([O-])c1ccc(O)c2ncccc12	8.31 µM
CCN(CC)CCOc1ccc2c(c1)C(=NNC(=O)c1ccccn1)c1cc(OCCN(CC)CC)ccc1-2	3.57 µM
S=C(NN=C1C2CC3CC(C2)CC1C3)Nc1ccccc1	30.4 µM
Oc1c(C(Nc2ccccn2)c2ccccn2)ccc2cccnc12 (stereo not given)	4.23 µM
CC[C@H]1OC(=O)C[C@@H](O)[C@H](C)[C@@H](O[C@@H]2O[C@H](C)C[C@H](N(C)C)[C@H]2O)[C@@H](CC=O)C[C@@H](C)C(=O)C=C[C@]2(C)O[C@H]2[C@@H]1C	11.9 µM
CN(C)c1ccc([C@@H]2[C@@H]([N+](=O)[O-])[C@H]3C=Cc4ccccc4N3[C@H]2C(=O)c2ccc(Cl)cc2)cc1	20.6 µM
FC(F)(F)c1ccc2c(c1)N(CCCN1CCN(CCCl)CC1)c1ccccc1S2	20.6 µM
C=COC(=O)CSc1snc(SCC(=O)OC)c1C#N	32.3 µM
COC(=O)c1ccc(Nc2cc(C)nc3ccccc23)cc1	6.32 µM
COc1ccc(NC(C)C(=O)Nc2ccc(C(C)(C)C)cc2)cc1Cl (stereo not given)	40.7 µM
CC(=O)NC(c1ccc(Cl)cc1Cl)c1ccc2cccnc2c1O (stereo not given)	0.28 µM
CCCCn1c(/N=C/c2c[nH]c3ccccc23)nc2ccccc21	27.2 µM
Cc1nc2c(C(=O)NCCC(C)C)c[nH]n2c(=O)c1Cc1ccccc1F	30.7 µM
COC(=O)c1cc(C)nc2c1C(=O)C(=O)C=C2N1CCOCC1	2.97 µM
COc1ccccc1CNCC(O)Cn1c2ccccc2c2ccccc21 (stereo not given)	8.21 µM
O=C1C(=O)c2ccccc2-c2ccccc21	8.03 µM
CCOc1ccc(Nc2c3ccccc3nc3ccccc23)cc1	1.24 µM
CCCCCc1ccc(OCCOCCn2c[n+](C)c3ccccc32)c(CCCCC)c1	1.35 µM
Cc1cc(C)nc(/N=C(\N)Nc2ccc(SC(F)F)cc2)n1	13.1 µM
Cc1ccc2[nH]c3c(NCc4ccccc4)ncnc3c2c1	17.1 µM

SMILES	EC50
Cc1ccc(O)c(-c2cc(-c3cccc(F)c3)n[nH]2)c1	18.2 µM
CC[n+]1c(/C=C/N(C)c2ccccc2)n(-c2ccccc2)c2ccc(-c3nc4ccccc4s3)cc21	0.46 µM
CC(C)[C@@H]1CC[C@@H](C)C[C@H]1OC(=O)C[n+]1cc(-c2ccc(Cl)cc2)n2c1CCCCC2	2.3 µM
CSc1ccc2c(c1)C(N1CCN(C)CC1)Cc1ccccc1S2 (stereo not given)	10.6 µM
O=C1c2ccccc2-c2onc3ccc(NCc4ccco4)c1c23	17.9 µM
O=C(N/N=C/c1ccc(O)cc1O)/C(=C/c1ccccc1)CCO	4.05 µM
C=CCc1ccccc1OCC(O)CN1CCN(CCN2C(=O)c3cccc4cccc(c34)C2=O)CC1 (stereo not given)	16.8 µM
Cc1cccc(Nc2c3c(nc4ccccc24)CCC3)c1	9.08 µM
Cc1ccc(C(=O)CSC2=C(C#N)C(c3ccco3)CC(=O)N2)c(C)c1 (stereo not given)	33.7 µM
O=C(NCCNc1ccc([N+](=O)[O-])cc1C(F)(F)F)c1ccc(F)cc1	43.7 µM
C#CCOCCOCCOCCNc1nc(N2CCN(C(=O)CCCCCCCCCCNC(=O)[C@H](CCCCN)n3cc(C[C@@H](C)CC)nn3)CC2)nc(N2CCN(C(=O)CCCCCCCCCCNC(=O)[C@H](CCCN=C(N)N)n3cc(C[C@@H](C)CC)nn3)CC2)n1	3.88 µM
CCOC(=O)C[n+]1c(C)sc2ccc(OC)cc21	25.8 µM
Cc1cccc(C)c1NC(=O)CCCSc1nnc(-c2ccc(Cl)cc2)n1-c1ccccc1	27.6 µM
Cc1c(C)n(Cc2ccccc2)c2ncnc(NN)c12	23.4 µM
COc1cccc(/C=N/n2c(C)nc3ccccc3c2=O)c1O	27.7 µM
C/C(=N\NC(=S)Nc1ccc(F)cc1)c1ccc2c(c1)OCCO2	10.5 µM
O=C(OCC1O[C@@H](OC(=O)c2cc(O)c(O)c(O)c2)[C@@H](OC(=O)c2cc(O)c(O)c(O)c2)[C@@H](OC(=O)c2cc(O)c(O)c(O)c2)[C@@H]1OC(=O)c1cc(O)c(O)c(O)c1)c1cc(O)c(O)c(O)c1 (stereo not given in full)	14 µM
c1ccc(-c2cccc(-c3ccccn3)n2)nc1	0.45 µM
O=C1NC2=C(CCc3ccccc32)C(c2ccc(Br)cc2)N1 (stereo not given)	19.3 µM
c1ccc(C2CNCc3c2ccc2ccccc32)cc1 (stereo not given)	11 µM
Brc1cccc(CNc2nc3ccccc3n2CCN2CCCCC2)c1	26.3 µM
CCCCCCCCCCOC(=O)Cn1c(COc2ccc(OC)cc2)[n+](C)c2ccccc21	3.17 µM and 2.22 µM
CCCCCCCSc1cc(OC)c(CCNC)cc1OC	6.34 µM
COc1ccc2c(c1)[nH]c1c(N3CCN(Cc4ccc5c(c4)OCO5)CC3)ncnc12	6.85 µM
CCN1/C(=C/C=C/c2sc3ccccc3[n+]2CC)Sc2ccccc21	0.43 µM
Clc1ccc(Cl)c(OCCCCNCc2ccccc2)c1	27.4 µM
O=C(Nc1ccc(O)cc1)c1cc2n(n1)C(C(F)(F)F)CC(c1ccco1)N2 (stereo not given)	11.9 µM
